Publication PMC11995211, “Design, Synthesis, and Evaluation of a New Fluorescent Ligand for the M2 Muscarinic Acetylcholine Receptor” (ACS Medicinal Chemistry Letters, 2025)

Tests used:
HA–M2R [1] = target: T1, HA–M2R (Homo sapiens, UniProt P08172); test: Two-photon microscopy labeling of live HEK 293T cells; assay type: cell-based; conditions: 300 nM
T1 sequence (P08172 1-466): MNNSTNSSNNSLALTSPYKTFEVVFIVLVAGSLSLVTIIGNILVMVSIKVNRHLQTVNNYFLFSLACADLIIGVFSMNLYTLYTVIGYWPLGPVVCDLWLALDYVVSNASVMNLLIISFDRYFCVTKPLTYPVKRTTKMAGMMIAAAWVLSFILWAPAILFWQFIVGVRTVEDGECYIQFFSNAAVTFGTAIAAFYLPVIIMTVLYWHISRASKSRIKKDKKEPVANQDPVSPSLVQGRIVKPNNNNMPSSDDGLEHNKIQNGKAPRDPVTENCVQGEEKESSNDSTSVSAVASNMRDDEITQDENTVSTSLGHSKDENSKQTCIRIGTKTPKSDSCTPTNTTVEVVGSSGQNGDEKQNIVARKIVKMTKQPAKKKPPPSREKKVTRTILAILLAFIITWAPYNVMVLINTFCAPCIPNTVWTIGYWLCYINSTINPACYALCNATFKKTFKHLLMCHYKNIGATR
Source text: We examined live M2R cells with two-photon microscopy as well (Figure ). A labeling pattern similar to that observed in the confocal microscopy studies was identified. Figure A illustrates 33 labeling in HA–M2R-transfected cells. […] Similarly to the confocal images, no dye labeling was detected inside the cells. Figure B presents a microscopic image of nontransfected cells, showing a minor degree of autofluorescence. […] For additional two-photon images, see Figures S7 and S8. […]
were examined using a two-photon laser scanning system (Femto2D-uncage, Femtonics Ltd., Budapest, Hungary). The imaging laser (Chameleon Ultra II, Coherent Ltd., Santa Clara, CA, USA) was set to 820 nm and to 2-3% intensity. The excitation was delivered to the slices and the fluorescent signal was collected using an XLUMPlanFI 20x lens (Olympus, Tokyo, Japan).
Before image acquisition, cells were washed twice, and the medium was replaced to modified Krebs–Ringer solution. After capturing the zero-point image, we added 300 nM 33. After two minutes we captured images in 33 and infrared transmission channels. After 3 minutes, unbound 33 was removed by washing the cells with modified Krebs–Ringer solution, and the image […]
(§1) (1 picture or pasted object on this page, not shown here)

HA–M2R [2] = target: T1, HA–M2R; test: STED nanoscopy labeling of living HEK 293T cells; assay type: cell-based; conditions: 300 nM
Source text: As STED microscopy is used for the deeper investigation of cellular processes even at the subcellular level, we challenged the fluorescent probe 33 in STED nanoscopy (Figure ). For STED, we used the same transfected cells as in the case of two-photon microscopy. Using the STED function and the available largest magnification objective, we observed improvement of optical resolution.
Figure S7. […] Scale bar:
20 μm. Representative images of two independent experiments are shown.
Figure S8. […] Scale bar:
50 μm. Representative images of two independent experiments are shown.
Confocal and STED microscopy
Confocal and STED images were acquired using a Leica TCS SP8 STED 3× inverse […]
well IBIDI chamber slides. The samples were scanned with a Leica HC PL Fluotar 20x/0.55 objective and a PMT detector. A 488 nm laser was used for the excitation of the fluorescent dye OG488 for the confocal imaging, and the spectral detection parameters were 500-550 nm.
as §1
Simultaneous transmission light imaging was used to detect the cells. For STED imaging, we used the same excitation laser and a Leica HC PL APO 100×/1.40 oil immersion objective and a Leica HyD detector, which was completed with a 660 nm STED (1.5 W, continuous wave) laser for depletion (at 1.17–2.48 × 109 W mm−2 nominal intensity with an output laser power of 1.2 W/32 nm × 32 nm pixel size). […]

GLuc–M2R = target: T2, GLuc–M2R (Homo sapiens, UniProt P08172); test: BRET-based ligand binding on HEK 293T cells expressing GLuc–M2R
T2 construct: expressed in transfected cells
T2 sequence (P08172 1-466): T1 sequence (P08172 1-466)

hM3R = target: T3, hM3R (Homo sapiens, UniProt P20309); test: Radioligand competition binding, [3H]-scopolamine (N-methyl), CHO cell membranes, hM3R; conditions: mean ± SD, n = 3; membranes from CHO cells transfected with hM3R; read-out: Receptor Ki M3
T3 construct: expressed in transfected cells; host or cells: CHO cell membranes
T3 sequence (P20309 whole entry): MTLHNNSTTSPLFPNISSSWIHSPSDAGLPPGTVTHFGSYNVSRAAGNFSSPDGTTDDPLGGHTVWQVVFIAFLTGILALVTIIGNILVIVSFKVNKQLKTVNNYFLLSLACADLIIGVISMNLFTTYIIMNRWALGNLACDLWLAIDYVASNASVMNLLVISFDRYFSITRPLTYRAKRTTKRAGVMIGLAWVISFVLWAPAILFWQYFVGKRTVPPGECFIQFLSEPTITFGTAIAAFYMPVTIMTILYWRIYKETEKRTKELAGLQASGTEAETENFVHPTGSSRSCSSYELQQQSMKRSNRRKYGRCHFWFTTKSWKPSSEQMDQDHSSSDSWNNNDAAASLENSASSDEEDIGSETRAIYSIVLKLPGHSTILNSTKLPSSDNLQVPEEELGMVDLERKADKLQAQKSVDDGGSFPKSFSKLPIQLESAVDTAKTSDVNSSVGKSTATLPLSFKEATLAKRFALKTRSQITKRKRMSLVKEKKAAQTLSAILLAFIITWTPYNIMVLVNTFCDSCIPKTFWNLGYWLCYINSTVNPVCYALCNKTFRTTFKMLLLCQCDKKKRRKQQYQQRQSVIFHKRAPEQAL

hM2R = target: T4, hM2R (Homo sapiens, UniProt P08172); test: Radioligand competition binding, [3H]-scopolamine (N-methyl), CHO cell membranes, hM2R; conditions: mean ± SD, n = 3; membranes from CHO cells transfected with hM2R; read-out: Receptor Ki M2
T4 construct: expressed in transfected cells; host or cells: CHO cell membranes
T4 sequence (P08172 1-466): T1 sequence (P08172 1-466)

hM4R = target: T5, hM4R (Homo sapiens, UniProt P08173); test: Radioligand competition binding, [3H]-scopolamine (N-methyl), CHO cell membranes, hM4R; conditions: mean ± SD, n = 3; membranes from CHO cells transfected with hM4R; read-out: Receptor Ki M4
T5 construct: expressed in transfected cells; host or cells: CHO cell membranes
T5 sequence (P08173 1-479): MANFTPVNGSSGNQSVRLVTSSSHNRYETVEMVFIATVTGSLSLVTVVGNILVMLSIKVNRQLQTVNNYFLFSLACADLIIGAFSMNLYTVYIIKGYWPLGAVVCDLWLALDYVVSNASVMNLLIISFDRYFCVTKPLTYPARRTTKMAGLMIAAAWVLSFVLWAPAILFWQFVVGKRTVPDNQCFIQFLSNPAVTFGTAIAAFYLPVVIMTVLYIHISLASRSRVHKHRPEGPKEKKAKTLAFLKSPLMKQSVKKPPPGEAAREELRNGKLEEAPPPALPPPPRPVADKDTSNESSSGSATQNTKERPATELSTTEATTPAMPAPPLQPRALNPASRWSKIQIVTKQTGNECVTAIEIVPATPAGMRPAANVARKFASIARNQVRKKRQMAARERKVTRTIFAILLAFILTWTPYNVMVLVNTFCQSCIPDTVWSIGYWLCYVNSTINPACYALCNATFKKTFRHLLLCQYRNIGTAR

M2R = target: T6, M2R (Homo sapiens, UniProt P08172); test: BRET-based TRUPATH GoA activation assay, antagonism of carbachol-induced G protein activation; assay type: cell-based
T6 sequence (P08172 1-466): T1 sequence (P08172 1-466)

O=C(CCOCCOCCNC(=O)c1ccc(-c2c3cc(F)c(=O)cc-3oc3cc(O)c(F)cc23)c(C(=O)O)c1)NCCOCCOCCNc1ccccc1C(=O)N1CCC(N2CCC(Cc3ccc(S(=O)(=O)c4cccc(Cl)c4)cc3)CC2)CC1 [Compound 33]
labeling of HA–M2R-transfected cells (HA–M2R [1]; excited at 820 nm, live HEK 293T): selectively only at the plasma membrane | labeling of nontransfected cells (HA–M2R [1]; nontransfected HEK 293T): no receptor labeling was observed | signal location in HA–M2R-expressing cells (HA–M2R [2]; living HEK 293T): concentrated in the membranes of cells | fluorescence in control (M2R-negative) cells (HA–M2R [2]; non-transfected HEK 293T): fluorescence is lacking | Kd (GLuc–M2R; 1-hour treatment, nonspecific with 100 μM atropine, read-out: dissociation constant (KD), equilibrium BRET-based ligand binding): 119 nM | kon (GLuc–M2R; BRET-based kinetic ligand binding, read-out: association rate constant): 8060 M⁻¹ s⁻¹ | koff (GLuc–M2R; read-out: dissociation rate constant): 0.000867 s⁻¹ | Ki (hM3R): 55600 ± 3240 nM | Ki (hM2R): 2.4 ± 0.4 nM | Ki (hM4R): 54.1 ± 10.4 nM | mode of antagonism of carbachol-induced G protein activation (M2R; TRUPATH GoA assay): competitive antagonists | Log(IC50) ± SD (M), carbachol-induced GoA protein activation (M2R; log10 of IC50 (negative values), HEK 293T, compound 20 min, then 10 μM carbachol 15 min, Hill-slope = 1, n = 3): –7.39 ± 0.09 M
